Converted amounts (≈) assume the structure as drawn.
How the values were obtained:
Assay type in all cases: physicochemical
[1] = Solubility Test, aqueous solution with pH 9.2; details: aqueous buffer, thermodynamic from solid, 10.75 mg almost dissolved when 13.5 mL was added
Procedure: To the crystals (10.75 mg) obtained in Example 6 was gradually added dropwise an aqueous solution with pH 9.2. The crystals were almost dissolved at the time point when 13.5 mL was added (solubility: 0.80 mg/mL).

[2] = Stability Test (residual rate of the crystal after preservation, by HPLC); details: crystals in a brown glass bottle, preserved at 40° C. for 2 weeks
Procedure: Residual rate was measured by HPLC (YMC-Pack AQ-302 ODS 4.6 mm i.d.×150 mm, temperature: about 25° C., mobile phase: (A) water (B) acetonitrile:water:triethylamine=160:40:1, gradient program, detection wavelength: 285 nm).

[3] = Solubility Test, aqueous solution with pH 6.9; details: aqueous buffer, thermodynamic from solid, 8.87 mg almost dissolved when 35 mL was added
Procedure: To the crystals (8.87 mg) obtained in Example 6 was gradually added dropwise an aqueous solution with pH 6.9.

With `Cc1c(OCC(F)(F)F)ccnc1C[S@@+]([O-])c1nc2ccccc2[nH]1` [Example 6, (R)-2-[[[3-methyl-4-(2,2,2-trifluoroethoxy)-2-pyridyl]methyl]sulfinyl]benzimidazole] as the compound, how does the solubility [1] read?
The solubility was 800 µg/mL (≈ 2170 µM).

What about the residual rate [2] of the same compound?
The residual rate was 100.7%.

And the solubility [3]?
The solubility was 250 µg/mL (≈ 677 µM).
